The test system of test [1] is m-IMCD3 cells expressing PDE4 long forms. Put plainly: cAMP levels in PGE2-stimulated 3D m-IMCD3 cell culture media. Type of test: cell-based. The following applies: Mus musculus, mIMCD3; 3 μM test compound; compared to 100% for (DMSO + PGE2); read-out: cAMP level (% of PGE2-stimulated). On the procedure:
HEK 293 and MDCK cells (Public Health England, Cell Culture Collections) were maintained in Dulbecco's Modified Eagle's Medium (DMEM) supplemented with 10% (v/v) fetal bovine serum (FBS) (Seralab), 2 mM L-glutamine and 100 U/mL penicillin streptomycin cocktail (ThermoFisher); termed complete media. Clonal HEK 293 cell lines were maintained in complete media supplemented with 0.6 mg/ml G418 (Enzo Life Sciences). Mouse inner medullary collecting duct (m-IMCD3) cells [American Type Culture Collection (ATCC)] were maintained in media consisting of DMEM/Hams F-12 50/50 Mix (DMEM F12; Corning) supplemented with penicillin streptomycin cocktail (100 U/mL) and FBS (10% v/v) (DMEM F12-10% FBS).
Activation of intracellular PDE4 long forms leads to a reduction of both intracellular cAMP and externalised cAMP (Omar et al., PNAS 116: 13320-13329, 2019). This reduction may be measured in the cell culture media supernatant of 3D cystic cell cultures, such as in the m-IMCD3 cell cyst suppression assay described in Experiment 3.
Following the completion of the m-IMCD3 cell cyst suppression assay (Experiment 3), the cAMP level in the assay media from individual or pooled assay wells was measured using a cAMP ELISA kit (Enzo Life Sciences) or a LANCE Ultra cAMP kit (PerkinElmer) according to the manufacturer's instructions.
In general terms: Changes in cAMP serve as a functional read-out for many G protein-coupled receptors.

Test [2] deals with m-IMCD3 cells. Put plainly: Inhibition of PGE2-stimulated in vitro cyst formation in m-IMCD3 cells. The following applies: Mus musculus, mIMCD3, 144 h, mean cyst area, 100% for (DMSO + PGE2) and 0% for DMSO control, 6 days of culture; for activity at 10 µM: read-out: % Cyst area after incubation with 10 μM test compound; for activity at 3 µM: read-out: % Cyst area after incubation with 3 μM test compound. It is filed as cell-based, mouse. In a few lines: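 m-IMCD3 cells embedded in collagen I/Matrigel 3D culture; 18–24 h after plating, compound (0.1% DMSO final) plus PGE2 (100 nM final) added, replenished after 2 or 3 days. After 6 days, z-stack imaging gave mean cyst area, normalized to DMSO+PGE2 (100%) and DMSO (0%).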

Molecules are shown by their SMILES.

For `O=C(CC1CCCC1)N1CCc2nc(C3CCNCC3)sc2C1` [Example 118, 2-cyclopentyl-1-(2-(piperidin-4-yl)-6,7-dihydrothiazolo[5,4-c]pyridin-5(4H)-yl)ethan-1-one], the activity at 3 µM in test [1] came to 52%. Moreover, the activity at 10 µM in test [2] stood at 5%.
With `CCN1CC2CCC(C1)N2c1nc2c(s1)CN(S(=O)(=O)Cc1ccc(F)cc1)CC2` [Example 286, 2-(3-ethyl-3,8-diazabicyclo[3.2.1]octan-8-yl)-5-((4-fluorobenzyl)sulfonyl)-4,5,6,7-tetrahydrothiazolo[5,4-c]pyridine], the activity at 3 µM in test [1] is 52%; in test [2] it was -2%.
Take `O=C(N1CCn2nc(N3C4CCC3CNC4)cc2C1)C(F)(F)c1ccccc1` [Example 126, 1-(2-(3,8-diazabicyclo[3.2.1]octan-8-yl)-6,7-dihydropyrazolo[1,5-a]pyrazin-5(4H)-yl)-2,2-difluoro-2-phenylethan-1-one]: the activity at 3 µM in test [1] stood at 39%. Further, in test [2], the activity at 10 µM was -10%.
As to `CC(C)N1CC2CCC(C1)N2c1nc2c(s1)CN(C(=O)COc1ccc(F)cc1)CC2` [Example 298, 2-(4-fluorophenoxy)-1-(2-(3-isopropyl-3,8-diazabicyclo[3.2.1]octan-8-yl)-6,7-dihydrothiazolo[5,4-c]pyridin-5(4H)-yl)ethan-1-one], the activity at 3 µM was 48% in test [1] and -7% in test [2].
The like results for `CC(C)C(=O)N1Cc2sc(N3C4CCC3CNC4)nc2CC1(C)C` [Example 268, 1-(2-(3,8-diazabicyclo[3.2.1]octan-8-yl)-6,6-dimethyl-6,7-dihydrothiazolo[5,4-c]pyridin-5(4H)-yl)-2-methylpropan-1-one] were, in that order, 39% and 1%.
For `CCN1CCN(c2nc3c(s2)CN(S(=O)(=O)Cc2ccc(F)cc2)CC3)CC1` [Example 304, 2-(4-ethylpiperazin-1-yl)-5-((4-fluorobenzyl)sulfonyl)-4,5,6,7-tetrahydrothiazolo[5,4-c]pyridine], in that order: 47% and 13%.
Turning to `O=C(CC1CCCC1)N1CCn2nc(N3C4CCC3CNC4)cc2C1` [Example 127, 1-(2-(3,8-diazabicyclo[3.2.1]octan-8-yl)-6,7-dihydropyrazolo[1,5-a]pyrazin-5(4H)-yl)-2-cyclopentylethan-1-one], in test [1], the activity at 3 µM is 42%. Also, the activity at 10 µM in test [2] is 3%.
As for `CCN1CC2CCC(C1)N2c1nc2c(s1)CN(C(=O)CC1CCCC1)CC2` [Example 291, 2-cyclopentyl-1-(2-(3-ethyl-3,8-diazabicyclo[3.2.1]octan-8-yl)-6,7-dihydrothiazolo[5,4-c]pyridin-5(4H)-yl)ethan-1-one], the activity at 3 µM came to 45% in test [1] and 3% in test [2].
Take `O=C(N[C@H]1CCOc2ccccc21)N1CCc2nc(N3C4CCC3CNC4)sc2C1` [Example 293, 2-(3,8-diazabicyclo[3.2.1]octan-8-yl)-N—((S)-chroman-4-yl)-6,7-dihydrothiazolo[5,4-c]pyridine-5(4H)-carboxamide]: the figures for the activity at 3 µM in test [1] and in test [2] were 36% and 4%, respectively.
For `CC(C)CC(=O)N1Cc2sc(N3C4CCC3CNC4)nc2C(C)(C)C1` [Example 257, 1-(2-(3,8-diazabicyclo[3.2.1]octan-8-yl)-7,7-dimethyl-6,7-dihydrothiazolo[5,4-c]pyridin-5(4H)-yl)-3-methylbutan-1-one], in that order: 36% and -3%.
For `O=C([C@H](O)C1CCCC1)N1CCc2nc(N3C4CCC3CNC4)sc2C1` [Example 171, (2R)-1-(2-(3,8-diazabicyclo[3.2.1]octan-8-yl)-6,7-dihydrothiazolo[5,4-c]pyridin-5(4H)-yl)-2-cyclopentyl-2-hydroxyethan-1-one], in that order: 56% and 6%.
The like results for `O=C(OC1CCCC1)N1CCc2nc(N3C4CCC3CNC4)sc2C1` [Example 244, cyclopentyl 2-(3,8-diazabicyclo[3.2.1]octan-8-yl)-6,7-dihydrothiazolo[5,4-c]pyridine-5(4H)-carboxylate] were, in that order, 40% and 6%.
With `CCN1CC2CCC(C1)N2c1nc2c(s1)CN(C(=O)NCc1ccc(F)cc1)CC2` [Example 300, 2-(3-ethyl-3,8-diazabicyclo[3.2.1]octan-8-yl)-N-(4-fluorobenzyl)-6,7-dihydrothiazolo[5,4-c]pyridine-5(4H)-carboxamide], the activity at 3 µM is 48% in test [1] and -3% in test [2].
`O=C(CC1CCCC1)N1CCc2nc(N3C4CCCC3CNC4)sc2C1` [Example 273, 1-(2-(3,9-diazabicyclo[3.3.1]nonan-9-yl)-6,7-dihydrothiazolo[5,4-c]pyridin-5(4H)-yl)-2-cyclopentylethan-1-one]: the figures for the activity at 3 µM in test [1] and in test [2] were 58% and -11%, respectively.
For `CCN1CC2CCC(C1)N2c1nc2c(s1)CN(C(=O)N[C@H]1CCOc3ccccc31)CC2` [Example 294, N—((S)-chroman-4-yl)-2-(3-ethyl-3,8-diazabicyclo[3.2.1]octan-8-yl)-6,7-dihydrothiazolo[5,4-c]pyridine-5(4H)-carboxamide], in that order: 39% and -5%.
Take `CC1(CC(=O)N2CCn3nc(N4C5CCC4CNC5)cc3C2)CCCC1` [Example 128, 1-(2-(3,8-diazabicyclo[3.2.1]octan-8-yl)-6,7-dihydropyrazolo[1,5-a]pyrazin-5(4H)-yl)-2-(1-methylcyclopentyl)ethan-1-one]: the activity at 3 µM in test [1] was 50%. For the same compound, in test [2], the activity at 10 µM was -2%.
In the case of `O=C(C1COc2ccccc21)N1CCc2nc(N3C4CCC3CNC4)sc2C1` (stereo not drawn) [Example 184, (2-(3,8-diazabicyclo[3.2.1]octan-8-yl)-6,7-dihydrothiazolo[5,4-c]pyridin-5(4H)-yl)(2,3-dihydrobenzofuran-3-yl)methanone], the activity at 3 µM in test [1] was 58%; in test [2] it was 15%.
Consider `O=S(=O)(Cc1ccccc1)N1CCc2nc(N3C4CCC3CNC4)sc2C1` [Example 288, 5-(benzylsulfonyl)-2-(3,8-diazabicyclo[3.2.1]octan-8-yl)-4,5,6,7-tetrahydrothiazolo[5,4-c]pyridine], for which the activity at 3 µM in test [1] turned out to be 34%; in test [2] it was 7%.
The like results for `CC(C)(C)CC(=O)N1CCc2sc(N3C4CCC3CNC4)nc2C1` [Example 282, 1-(2-(3,8-diazabicyclo[3.2.1]octan-8-yl)-6,7-dihydrothiazolo[4,5-c]pyridin-5(4H)-yl)-3,3-dimethylbutan-1-one] were, in that order, 35% and 3%.
For `O=S(=O)(Cc1ccc(F)cc1)N1CCc2nc(N3C4CCC3CNC4)sc2C1` [Example 285, 2-(3,8-diazabicyclo[3.2.1]octan-8-yl)-5-((4-fluorobenzyl)sulfonyl)-4,5,6,7-tetrahydrothiazolo[5,4-c]pyridine], in that order: 35% and -3%.
For `O=C(CC1CCCC1)N1CCc2nc(N3CC4CCCC(C3)N4)sc2C1` [Example 280, 1-(2-(3,9-diazabicyclo[3.3.1]nonan-3-yl)-6,7-dihydrothiazolo[5,4-c]pyridin-5(4H)-yl)-2-cyclopentylethan-1-one], in that order: 33% and -10%.
On to `O=C(CC1CCCC1)N1CCc2nc(N3CC4CCC(C3)N4)sc2C1` [Example 276, 1-(2-(3,8-diazabicyclo[3.2.1]octan-3-yl)-6,7-dihydrothiazolo[5,4-c]pyridin-5(4H)-yl)-2-cyclopentylethan-1-one], for which the activity at 3 µM in test [1] was 41%; in test [2] it was 13%.
For `CCCN1CC2CCC(C1)N2c1nc2c(s1)CN(C(=O)COc1ccc(F)cc1)CC2` [Example 303, 2-(4-fluorophenoxy)-1-(2-(3-propyl-3,8-diazabicyclo[3.2.1]octan-8-yl)-6,7-dihydrothiazolo[5,4-c]pyridin-5(4H)-yl)ethan-1-one], in that order: 55% and 0%.
With `O=C(CC1CCCC1)N1CCc2sc(N3C4CCC3CNC4)nc2C1` [Example 281, 1-(2-(3,8-diazabicyclo[3.2.1]octan-8-yl)-6,7-dihydrothiazolo[4,5-c]pyridin-5(4H)-yl)-2-cyclopentylethan-1-one], the activity at 3 µM in test [1] was 51%; in test [2], -9%.
